The structures appear in SMILES notation. Some results are limits rather than exact numbers.

The assay has as its target T1, a4b7 integrin interaction with MadCAM-1 (Homo sapiens, UniProt P13612+P26010).
T1 construct: capture of a4b7 integrin expressing cells, RPMI8866; endogenous in cells; host or cells: RPMI8866
T1 sequence (P13612 34-1032): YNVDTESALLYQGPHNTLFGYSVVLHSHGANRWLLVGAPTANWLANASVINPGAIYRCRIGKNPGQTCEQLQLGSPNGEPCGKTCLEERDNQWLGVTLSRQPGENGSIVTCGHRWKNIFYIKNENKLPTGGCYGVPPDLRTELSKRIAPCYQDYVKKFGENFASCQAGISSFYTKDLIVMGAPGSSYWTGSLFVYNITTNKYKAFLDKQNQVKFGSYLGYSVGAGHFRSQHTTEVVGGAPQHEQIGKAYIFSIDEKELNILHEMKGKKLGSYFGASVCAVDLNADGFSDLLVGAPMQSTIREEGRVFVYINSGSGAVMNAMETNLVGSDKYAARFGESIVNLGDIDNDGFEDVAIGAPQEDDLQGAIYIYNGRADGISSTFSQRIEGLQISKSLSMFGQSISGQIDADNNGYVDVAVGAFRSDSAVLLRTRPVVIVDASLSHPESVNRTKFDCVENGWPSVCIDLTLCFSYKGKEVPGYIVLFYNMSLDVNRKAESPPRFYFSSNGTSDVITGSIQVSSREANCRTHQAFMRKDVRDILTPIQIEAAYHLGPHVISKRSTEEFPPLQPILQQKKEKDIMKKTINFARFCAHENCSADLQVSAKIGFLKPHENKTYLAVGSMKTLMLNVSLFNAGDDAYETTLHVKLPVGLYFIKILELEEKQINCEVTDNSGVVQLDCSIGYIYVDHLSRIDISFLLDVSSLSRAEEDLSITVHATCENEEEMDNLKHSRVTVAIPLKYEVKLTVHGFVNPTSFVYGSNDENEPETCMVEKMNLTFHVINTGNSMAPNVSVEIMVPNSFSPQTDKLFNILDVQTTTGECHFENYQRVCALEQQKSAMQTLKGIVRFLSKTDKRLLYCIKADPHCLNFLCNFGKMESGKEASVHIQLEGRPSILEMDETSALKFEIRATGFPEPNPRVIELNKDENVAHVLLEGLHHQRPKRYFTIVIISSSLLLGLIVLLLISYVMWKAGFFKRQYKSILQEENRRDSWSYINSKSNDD
T1 sequence (P26010 20-798): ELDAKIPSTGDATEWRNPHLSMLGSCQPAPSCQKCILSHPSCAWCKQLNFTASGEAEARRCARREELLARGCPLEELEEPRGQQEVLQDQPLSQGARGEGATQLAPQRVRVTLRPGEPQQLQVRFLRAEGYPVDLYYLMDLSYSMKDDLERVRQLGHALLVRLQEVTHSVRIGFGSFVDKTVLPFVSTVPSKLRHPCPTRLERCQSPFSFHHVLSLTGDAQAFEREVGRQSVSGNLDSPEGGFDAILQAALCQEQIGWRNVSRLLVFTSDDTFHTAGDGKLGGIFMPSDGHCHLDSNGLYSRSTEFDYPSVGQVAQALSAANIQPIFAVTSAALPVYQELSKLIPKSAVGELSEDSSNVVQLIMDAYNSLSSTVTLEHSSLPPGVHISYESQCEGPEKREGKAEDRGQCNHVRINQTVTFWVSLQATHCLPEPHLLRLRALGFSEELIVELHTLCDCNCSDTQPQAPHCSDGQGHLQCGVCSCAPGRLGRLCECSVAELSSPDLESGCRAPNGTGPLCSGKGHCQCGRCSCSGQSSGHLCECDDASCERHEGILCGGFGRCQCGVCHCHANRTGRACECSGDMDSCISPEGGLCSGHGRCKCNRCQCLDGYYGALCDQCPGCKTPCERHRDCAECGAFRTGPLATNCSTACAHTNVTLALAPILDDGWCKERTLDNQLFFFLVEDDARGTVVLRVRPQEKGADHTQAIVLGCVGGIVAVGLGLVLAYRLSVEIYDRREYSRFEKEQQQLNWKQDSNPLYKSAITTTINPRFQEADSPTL
In words: a4b7 Cell Capture Assay (RPMI8866 cells on MAdCAM-1 Fc coated plates). The format is cell-based. Particulars: 50% human serum, 1 mM MgCl2, 1 hour incubation, CellTiter-Glo luminescence, read-out: a4B7 cell capture assay RMPI8866-MadCAM EC50. A digest of the protocol: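 RPMI8866 cells (1.0×10^6 cells/mL) in 1 mM MgCl2, 25 mM HEPES, 50% human serum were added to plates coated with human MAdCAM-1–IgG1 Fc (1.0 μg/mL) and exposed to compound (9-point, 0.08–1000 nM, 0.1% DMSO) for 1 h at 37 °C. Bound cells were read by CellTiter-Glo luminescence. IC50 came from 4-parameter fit of normalized % inhibition.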
Consider `Cc1ccc(C)c2c1Oc1cccc(c1)[C@H](n1cc(CCN3CC(F)C3)c(C(F)(F)F)cc1=O)C(=O)N[C@@H](CC(=O)O)c1cc-2cc(C(F)(F)F)c1F` (relative stereo) [Example 12, [(14R*,17S)-19-fluoro-14-{5-[2-(3-fluoroazetidin-1-yl)ethyl]-2-oxo-4-(trifluoromethyl)pyridin-1-yl}-3,6-dimethyl-15-oxo-20-(trifluoromethyl)-8-oxa-16-azatetracyclo[16.3.1.1^{9,13}.0^{2,7}]tricosa-1(22),2(7),3,5,9,11,13(23),18,20-nonaen-17-yl]acetic acid], for which the EC50 is 970 nM.

Regarding `Cc1cc2cc(c1F)[C@H](CC(=O)O)NC(=O)[C@@H](n1cc(CCN3CC(F)C3)c(C(F)(F)F)cc1=O)c1cc(ccc1F)COc1cccc(C)c1-2` (relative stereo) [Example 36, [(15R*,18S)-13,20-difluoro-15-{5-[2-(3-fluoroazetidin-1-yl)ethyl]-2-oxo-4-(trifluoromethyl)pyridin-1-yl}-3,21-dimethyl-16-oxo-8-oxa-17-azatetracyclo[17.3.1.1^{10,14}.0^{2,7}]tetracosa-1(23),2(7),3,5,10,12,14(24),19,21-nonaen-18-yl]acetic acid], the EC50 turned out to be 5.2 nM.

Consider `Cc1cc2cc(c1F)[C@H](CC(=O)O)NC(=O)[C@@H](n1cc(CCN3CCC(F)(F)CC3)c(C(F)(F)F)cc1=O)c1cc(ccc1F)Oc1cccc(C)c1-2` (single isomer, unassigned) [Example 63], for which the EC50 came out at 10 nM.

For `Cc1cc2cc(c1F)[C@H](CC(=O)O)NC(=O)[C@@H](n1cc(CCN3CC(F)C3)c(C(F)(F)F)cc1=O)c1cc(ccc1Cl)Oc1cccc(C)c1-2` (relative stereo) [Example 59, [(14R*,17S)-12-chloro-19-fluoro-14-{5-[2-(3-fluoroazetidin-1-yl)ethyl]-2-oxo-4-(trifluoromethyl)pyridin-1-yl}-3,20-dimethyl-15-oxo-8-oxa-16-azatetracyclo[16.3.1.1^{9,13}.0^{2,7}]tricosa-1(22),2(7),3,5,9,11,13(23),18,20-nonaen-17-yl]acetic acid], the EC50 amounted to 1.2 nM.

With `Cc1cccc2c1-c1cc(c(F)c(C(F)(F)F)c1)[C@H](CC(=O)O)NC(=O)[C@@H](n1cc(Cl)c(C(F)(F)F)cc1=O)c1cccc(c1)O2` [Example 39, [(17S)-14-[5-chloro-2-oxo-4-(trifluoromethyl)pyridin-1-yl]-19-fluoro-3-methyl-15-oxo-20-(trifluoromethyl)-8-oxa-16-azatetracyclo[16.3.1.1^{9,13}.0^{2,7}]tricosa-1(22),2(7),3,5,9,11,13(23),18,20-nonaen-17-yl]acetic acid], the concentration giving a half-maximal response (EC50) is more than 100 nM.

Consider `Cc1cc2cc(c1F)[C@H](CC(=O)O)NC(=O)[C@@H](n1cc(CCN3CC(F)C3)c(C(F)(F)F)cc1=O)c1cc(ccc1F)COc1nn(CC3CC3)cc1-2` (single isomer, unassigned) [Example 70], for which the EC50 is more than 100 nM.

Consider `Cc1cc2cc(c1F)[C@H](CC(=O)O)NC(=O)[C@@H](n1cc(CCN3CC(F)C3)c(C(F)(F)F)cc1=O)c1cc(cc(Cl)c1F)COc1cccc(C)c1-2` (single isomer, unassigned) [Example 49], for which the EC50 turned out to be 4.9 nM.

As to `Cc1cc2cc(c1F)[C@H](CC(=O)O)NC(=O)[C@@H](n1cc(CCN3CC(F)C3)c(C(F)(F)F)cc1=O)c1cc(ccc1F)COc1ccc(F)cc1-2` (single isomer, unassigned) [Example 50], the EC50 was more than 100 nM.

With `Cc1cc2cc(c1F)[C@H](CC(=O)O)NC(=O)[C@@H](n1ccc(C(F)(F)F)c(Cl)c1=O)c1cc(ccc1F)COc1cccc(C)c1-2` (relative stereo) [Example 79, [(15R*,18S)-15-[3-chloro-2-oxo-4-(trifluoromethyl)pyridin-1-yl]-13,20-difluoro-3,21-dimethyl-16-oxo-8-oxa-17-azatetracyclo[17.3.1.1^{10,14}.0^{2,7}]tetracosa-1(23),2(7),3,5,10,12,14(24),19,21-nonaen-18-yl]acetic acid], the EC50 is more than 100 nM.

Values taken from patent US20240279214A1, “ALPHA4 BETA7 INEGRIN ANTAGONISTS AND USES THEREOF” (XinThera, Inc., priority 2022, published 2024).
